Paper PMC5902495, “Synthesis of Symmetrical Tetrameric Conjugates of the Radiolanthanide Chelator DOTPI for Application in Endoradiotherapy by Means of Click Chemistry” (Frontiers in Chemistry, 2018)

Legend:
[1] = Stability and protonation constants of Zn^II complexes (pH-potentiometry); assay type: physicochemical; details: 25°C, 0.15 M NaCl
Description: For determining the protonation constants of DOTPI(Chx)4 and DOTPI three parallel pH-potentiometric titration were made with 0.2 M NaOH in 0.002 M ligand solutions. The stability and protonation constants of the Ca^II and Zn^II complexes formed with DOTPI(Chx)4 and DOTPI ligands have been determined by direct pH-potentiometric titration made at 1:1 and 2:1 metal to ligand concentration ratios. (the concentration of ligands was 0.002 M). For the calculation of the logKML and logKMLHi values, the mL base—pH data used were obtained in the pH range 1.7–12.0.
For pH measurements and titrations, a Metrohm 785 DMP Titrino titration workstation and a Metrohm-6.0233.100 combined electrode were used. Equilibrium measurements were carried out at a constant ionic strength (0.15 M NaCl) in 6 mL samples at 25°C. The solutions were stirred, and constantly purged with N2. The titrations were performed in a pH range of 1.7–11.7. KH-phthalate (pH = 4.005) and borax (pH = 9.177) buffers were used to calibrate the pH meter. For calculation of [H^+] from measured pH values, the method proposed by Irving et al. was used (Irving et al., [1967]). A 0.01 M HCl solution was titrated with the standardized NaOH solution in the presence of 0.1 M NaCl. Differences between the measured (pHread) and calculated pH (–log[H^+]) values were used to obtain the equilibrium H^+ concentration from the pH values, measured in the titration experiments. For the equilibrium calculations, the stoichiometric water ionic product (pKw) is also needed to calculate [H^+] values in basic conditions. The VNaOH – pHread data pairs of the HCl – NaOH titration obtained in the pH range 10.5–12 have been used to calculate the pKw value (pKw = 13.85). For the calculation of the equilibrium constants the program PSEQUAD (Zekany and Nagypal, [1985]) was used.
2. Protonation and complexation equilibria of DOTPI and
The protonation processes of the DOTPI and DOTPI(Chx)4, ligands have been studied by pH-potentiometry. The protonation constants (logKiH) of ligands are defined according to Eq. (1).
The stability and protonation constants of DOTPI and DOTPI(Chx)4 complexes with several metal ions were determined by pH-potentiometric and UV/Vis spectrophotometric, methods.
The stability and protonation constants of the metal complexes formed with the DOTPI and DOTPI(Chx)4, ligands, defined by Eqs. […]
where i = 1, 2, 3…5. The KML and KMHiL values characterizing the formation of DOTPI and DOTPI(Chx)4 complexes of CaII and ZnII have been calculated from the pH-potentiometric titration data obtained at 1:1 metal to ligand concentration ratios. The protonation constants of the complexes Cu(DOTPI) and Cu(DOTPI( Chx)4) were also determined by pH-potentiometric titrations, made at 1:1 metal to ligand concentration ratio. The pH-potentiometric titrations of DOTPI ligand were also performed at 2:1 metal-to-ligand ratio in order to examine the possible formation of dinuclear CaII-, ZnII-, and CuII-DOTPI complexes.
The stability and protonation constants of the dinuclear complexes formed with the DOTPI […]
where i=1 and 2. In calculating the equilibrium constants, the best fit of the mL base – pH data was obtained by assuming the formation of ML, MHL, MH 2L, MH3L, MH4L, MH5L, M2L, M2LH, and M2LH2 complexes with DOTPI and DOTPI(Chx)4.
(also on this page, place not known: ]H][LH[ ]LH[K 1i iH + − = DOTPI( Chx)4 f ormed ]L][M[ ]ML[K ML = ]H][LMH[ ]LMH[K 1i i LMHi + − = i 3 …5. Ca II Zn II -potentiometric pH - metal -to-ligand Cu II-DOTPI ]M][ML[ ]LM[K 2 LM2 = ]H][LHM[ ]LHM[K 1i2 i2 LHM i2 + − = pH MH 4L,) […]

[2] = 25°C, I = 0.1 M Me4NCl, ref Šimeček et al., [2013], cited from earlier work
[3] = 25°C, I = 0.1 M Me4NCl; ref Lázár et al., [1991]; cited from earlier work

protonation constant Zn2LH [1]: 5.02 (5) | protonation constant Zn2LH2 [1]: 4.87 (4) | protonation constant ZnH2L [1]: 5.15 (3) | protonation constant ZnH3L [1]: 4.40 (4) | protonation constant ZnH4L [1]: 4.42 (1) | protonation constant ZnHL [1]: 5.65 (3) | stability constant of dinuclear complex Zn2L [1]: 3.78 (4)
SMILES: O=C(O)CCP(=O)(O)CN1CCN(CP(=O)(O)CCC(=O)O)CCN(CP(=O)(O)CCC(=O)O)CCN(CP(=O)(O)CCC(=O)O)CC1 [DOTPI, 1,4,7,10-tetraazacyclododecane-1,4,7,10-tetrakis[methylene(2-carboxyethylphosphinic acid)]]
Σlog KiH (total basicity) ([2]; distant carboxylate groups of DOTPI not considered): 24.91 | log K1H [2]: 11.58 | log K2H [2]: 8.90 | log K3H [2]: 5.65 | log K4H [2]: 4.98 | log K5H [2]: 4.61 | log K6H [2]: 4.07 | log K7H [2]: 3.12 | log K8H [2]: 1.31 | logKML, CaL [3]: 12.48
